Assay results from the supplement of paper PMC11451515.

Experiments:
P12-Ichikawa [1] = assay: cell viability relative to DMSO control; higher = less cytotoxic; details: RPMI 5 mM glucose + 10% dialyzed FBS, 48 h
Method in brief: (§1)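 Library compounds in DMSO were pin-dosed into 1536-well plates (5 μl) holding NOMO1 or SEM (500 cells/well) or P12-Ichikawa (1000 cells/well) leukemia cells, across an 11-point threefold series of 47 μM to 0.79 nM. Each cell line had been adapted for at least four passages in each medium. CellTiter-Glo One luminescence was read after 48 h at 37°C. Viability is the per-plate percentage relative to DMSO wells, with cell-free wells as background.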

SEM cells [2] = assay: as above; details: HPLM + 10% dialyzed FBS, 48 h
Method in brief: as §1

SEM cells [3] = assay: AUC of viability dose-response curve (% viability x log10 dose units); higher = less sensitive; details: 48 h
Method in brief: (§2)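 Leukemia cells adapted to each medium were seeded in 1536-well plates (500 or 1000 cells/well) and given library compounds in DMSO for 48 h at 37°C. The 11 threefold doses spanned 47 μM to 0.79 nM, and CellTiter-Glo One luminescence was normalised per plate to DMSO and cell-free wells before four-parameter log-logistic fitting on log10 dose. Area under the curve was integrated with the trapezoidal rule, scaling curves above full viability and removing curves that failed quality control.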

NOMO1 = assay: as above; details: 48 h
Method in brief: as §2

P12-Ichikawa [4] = assay: as above; details: 48 h
Method in brief: as §2

[5] = RPMI 5 mM glucose + 10% dialyzed FBS

Row | Compound | cell viability (P12-Ichikawa [1]; 0.000781 µM) | cell viability (P12-Ichikawa [1]; 0.00234 µM) | cell viability (P12-Ichikawa [1]; 0.00702 µM) | cell viability (P12-Ichikawa [1]; 0.0211 µM) | cell viability (P12-Ichikawa [1]; 0.0632 µM) | cell viability (P12-Ichikawa [1]; 0.19 µM) | cell viability (P12-Ichikawa [1]; 0.569 µM) | cell viability (P12-Ichikawa [1]; 1.71 µM) | cell viability (P12-Ichikawa [1]; 5.12 µM) | cell viability (P12-Ichikawa [1]; 15.4 µM) | cell viability (P12-Ichikawa [1]; 46.1 µM) | cell viability (SEM cells [2]; 0.000781 µM) | cell viability (SEM cells [2]; 0.00234 µM) | cell viability (SEM cells [2]; 0.00702 µM) | cell viability (SEM cells [2]; 0.0211 µM) | cell viability (SEM cells [2]; 0.0632 µM) | cell viability (SEM cells [2]; 0.19 µM) | cell viability (SEM cells [2]; 0.569 µM) | cell viability (SEM cells [2]; 1.71 µM) | cell viability (SEM cells [2]; 5.12 µM) | cell viability (SEM cells [2]; 15.4 µM) | cell viability (SEM cells [2]; 46.1 µM) | AUC of viability dose-response curve (SEM cells [3]; HPLM + 10% dialyzed FBS) | AUC of viability dose-response curve (SEM cells [3]; RPMI 5 mM glucose + 10% FBS) | AUC of viability dose-response curve (SEM cells [3]; [5]) | AUC of viability dose-response curve (NOMO1; HPLM + 10% dialyzed FBS) | AUC of viability dose-response curve (NOMO1; RPMI 5 mM glucose + 10% FBS) | AUC of viability dose-response curve (NOMO1; [5]) | AUC of viability dose-response curve (P12-Ichikawa [4]; HPLM + 10% dialyzed FBS) | AUC of viability dose-response curve (P12-Ichikawa [4]; RPMI 5 mM glucose + 10% FBS) | AUC of viability dose-response curve (P12-Ichikawa [4]; [5])
1 | CN(C)CCCN1c2ccccc2CCc2ccc(Cl)cc21 | 71% | 155% | 125% | 145% | 138% | 134% | 142% | 142% | 134% | 125% | 82.9% | 122% | 132% | 122% | 134% | 118% | 122% | 125% | 122% | 105% | 109% | 39.6% | 453 | 453 | 452 | 431 | 448 | 441 |  |  | 
2 | CC(C)(O)Cn1c(NC(=O)c2ccc(-c3cn[nH]c3)s2)nc2cc(CN3CCOCC3)ccc21 |  |  |  |  |  |  |  |  |  |  |  |  |  |  |  |  |  |  |  |  |  |  | 226 | 206 | 207 | 352 | 369 | 368 | 365 | 364 | 364
3 | CC(=O)Nc1ccc(O)cc1 |  |  |  |  |  |  |  |  |  |  |  |  |  |  |  |  |  |  |  |  |  |  | 472 | 476 | 467 | 464 | 459 | 463 | 455 | 458 | 470
4 | CC(C)(C)c1cnc(CSc2cnc(NC(=O)C3CCNCC3)s2)o1 |  |  |  |  |  |  |  |  |  |  |  |  |  |  |  |  |  |  |  |  |  |  | 297 | 309 | 311 | 289 | 321 | 312 | 250 | 321 | 330
5 | CCc1nc(-c2cccc(C)c2)c(-c2ccnc(NC(=O)c3ccccc3)c2)s1 |  |  |  |  |  |  |  |  |  |  |  |  |  |  |  |  |  |  |  |  |  |  | 463 | 452 | 449 | 461 | 454 | 443 | 449 | 456 | 450
6 | COc1ccc2c(c1)c(CC(=O)O)c(C)n2C(=O)c1ccc(Cl)cc1 |  |  |  |  |  |  |  |  |  |  |  |  |  |  |  |  |  |  |  |  |  |  | 459 | 432 | 466 | 461 | 473 | 460 | 440 | 466 | 466
